Source: publication PMC12643509, “High-throughput screens identify genotype-specific therapeutics for channelopathies” (JCI Insight, 2025)
Values joined by “and” are separate entries in the source; they are usually repeats but may differ in a detail not shown here. Equal values may be shown once.

Target: WT Kv11.1 (Homo sapiens, UniProt Q12809)
Assay: Whole-cell patch-clamp electrophysiology, drug in bath solution, WT
Format: cell-based
Design: expressed in transfected cells; Activation tail currents / Steady-state currents / Time constants of activation (τ): unit not given here
Settings: for peak tail currents (I-V relationship) / Steady-state currents / Activation tail currents: WT, individual cells; for peak tail currents (I-V relationship): evacetrapib 15 μmol/L in bath; for Steady-state currents / Activation tail currents: evacetrapib 15 μmol/L; for Activation tail currents: tail at –40 mV
Description: Peak stea dy-sta te current was
Tail current was fit with a […]

Sequence of WT Kv11.1 (Q12809 whole entry): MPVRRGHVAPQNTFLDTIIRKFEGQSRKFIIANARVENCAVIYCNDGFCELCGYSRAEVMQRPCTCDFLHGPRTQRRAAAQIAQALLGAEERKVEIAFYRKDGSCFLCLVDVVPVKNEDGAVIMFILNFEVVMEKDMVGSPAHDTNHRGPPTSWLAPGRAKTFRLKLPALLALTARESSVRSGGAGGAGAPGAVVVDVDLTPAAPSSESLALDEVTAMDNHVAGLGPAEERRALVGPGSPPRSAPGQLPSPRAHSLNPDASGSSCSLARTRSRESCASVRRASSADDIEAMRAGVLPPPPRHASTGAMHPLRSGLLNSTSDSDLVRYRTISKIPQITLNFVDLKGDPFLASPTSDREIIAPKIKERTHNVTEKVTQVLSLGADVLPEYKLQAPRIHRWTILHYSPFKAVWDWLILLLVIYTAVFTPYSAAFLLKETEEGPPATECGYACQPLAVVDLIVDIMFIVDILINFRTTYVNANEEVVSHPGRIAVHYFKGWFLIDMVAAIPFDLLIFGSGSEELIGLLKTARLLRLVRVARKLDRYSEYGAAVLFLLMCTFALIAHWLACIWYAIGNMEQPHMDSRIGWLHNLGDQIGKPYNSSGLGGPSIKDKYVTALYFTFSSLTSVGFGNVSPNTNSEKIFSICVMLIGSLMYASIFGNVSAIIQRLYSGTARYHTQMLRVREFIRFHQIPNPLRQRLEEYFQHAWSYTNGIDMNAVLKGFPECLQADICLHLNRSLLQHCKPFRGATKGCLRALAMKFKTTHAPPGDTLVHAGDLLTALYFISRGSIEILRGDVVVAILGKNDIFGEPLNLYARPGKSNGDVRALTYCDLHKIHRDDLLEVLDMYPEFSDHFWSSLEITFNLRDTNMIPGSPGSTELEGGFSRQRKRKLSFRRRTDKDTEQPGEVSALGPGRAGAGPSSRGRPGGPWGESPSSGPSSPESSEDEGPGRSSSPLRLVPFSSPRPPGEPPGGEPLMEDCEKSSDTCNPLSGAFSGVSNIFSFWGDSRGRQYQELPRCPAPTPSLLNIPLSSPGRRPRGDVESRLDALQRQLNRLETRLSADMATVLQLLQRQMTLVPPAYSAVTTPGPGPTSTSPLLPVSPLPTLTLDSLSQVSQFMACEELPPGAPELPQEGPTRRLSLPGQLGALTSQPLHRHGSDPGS

Cc1cc(C)c2c(c1)[C@@H](N(Cc1cc(C(F)(F)F)cc(C(F)(F)F)c1)c1nnn(C)n1)CCCN2C[C@H]1CC[C@H](C(=O)O)CC1 [Evacetrapib, evacetrapib]
Figure 4B value per cell vs Voltage (mV) (Voltage 40 mV, individual replicates): 2.999 and 3.548 and 3.503 and 3.618 and 3.396 | Figure 4B value per cell vs Voltage (mV) (Voltage 50 mV, individual replicates): 2.259 and 2.688 and 2.663 and 2.777 and 2.566 | Figure 4B value per cell vs Voltage (mV) (Voltage 60 mV, individual replicates): 1.878 and 2.068 and 2.124 and 2.21 and 2.021 | Figure 4B value per cell vs Voltage (mV) (Voltage 70 mV, individual replicates): 1.522 and 1.6561 and 1.697 and 1.79 and 1.58 | peak tail currents (I-V relationship) (Voltage (mV) 0): 108.731 and 68.2281 and 79.8578 and 105.108 and 89.4676 and 63.9693 and 63.3317 and 23.2206 and 38.9777 and 18.6844 | Steady-state currents (Voltage (mV) 0): 40.4395 and 14.6593 and 23.6253 and 10.7424 and 12.2745 and 25.059 and 13.3557 and 25.8785 and 25.7792 and 48.7186 and 28.6917 | Activation tail currents (Voltage (mV) 0): 45.6244 and 25.343 and 54.0146 and 31.4245 and 29.2272 and 68.7383 and 34.1486 and 20.8925 and 71.2996 and 102.774 and 57.7045 | peak tail currents (I-V relationship) (Voltage (mV) 10): 93.1489 and 60.1622 and 69.939 and 86.7676 and 75.6735 and 55.3784 and 40.7784 and 17.5354 and 25.5833 and 12.8315 | Steady-state currents (Voltage (mV) 10): 32.8981 and 20.4014 and 36.7833 and 17.1944 and 20.5841 and 27.8135 and 21.9511 and 36.7956 and 27.3543 and 47.5782 and 26.4245 | Activation tail currents (Voltage (mV) 10): 61.4581 and 36.6943 and 61.1695 and 48.7606 and 43.5182 and 102.425 and 47.3892 and 33.802 and 80.7764 and 116.916 and 59.6106 | peak tail currents (I-V relationship) (Voltage (mV) 20): 76.997 and 51.8869 and 61.5888 and 71.295 and 62.4196 and 45.36 and 26.1159 and 13.7511 and 17.275 and 9.104 | Steady-state currents (Voltage (mV) 20): 22.6993 and 18.9152 and 37.889 and 17.2911 and 21.9338 and 23.7154 and 29.6022 and 43.1925 and 20.5026 and 37.4057 and 19.7431 | Activation tail currents (Voltage (mV) 20): 71.9787 and 45.4439 and 63.7225 and 61.2461 and 53.0993 and 122.955 and 54.7189 and 46.6431 and 82.6403 and 123.849 and 59.1491 | peak tail currents (I-V relationship) (Voltage (mV) 30): 61.9853 and 42.564 and 49.6862 and 55.8776 and 49.9256 and 37.5621 and 17.4891 and 11.2899 and 12.2347 and 6.843 | Steady-state currents (Voltage (mV) 30): 13.8134 and 15.2335 and 30.8124 and 15.3878 and 19.0656 and 16.8628 and 32.7435 and 42.003 and 14.0184 and 26.2752 and 15.6099 | Activation tail currents (Voltage (mV) 30): 78.4549 and 49.9729 and 64.1927 and 68.2058 and 57.9705 and 130.879 and 57.8601 and 56.5419 and 81.1964 and 126.769 and 58.6074 | peak tail currents (I-V relationship) (Voltage (mV) 40): 49.0637 and 36.1043 and 40.7824 and 44.6525 and 42.1084 and 30.3986 and 12.7193 and 9.659 and 9.23 and 5.4472 | Steady-state currents (Voltage (mV) 40): 8.152 | Activation tail currents (Voltage (mV) 40): 80.9925 and 51.9387 and 63.2186 and 69.4712 and 59.5512 and 133.68 and 59.6841 and 61.1492 and 78.5713 and 128.32 and 57.9252 | peak tail currents (I-V relationship) (Voltage (mV) -10): 121.614 and 76.2939 and 89.915 and 120.029 and 102.147 and 69.7054 and 87.5927 and 30.4321 and 56.9661 and 25.473 | Steady-state currents (Voltage (mV) -10): 39.4793 and 7.634 and 11.4994 and 5.42 and 5.3991 and 14.8809 and 6.707 and 15.12 and 14.6222 and 35.1249 and 21.6894 | peak tail currents (I-V relationship) (Voltage (mV) -20): 131.419 and 84.709 and 100.756 and 135.254 and 114.81 and 74.7542 and 102.167 and 37.4476 and 77.7339 and 32.9646 | Steady-state currents (Voltage (mV) -20): 32.9524 and 3.6817 and 4.46 and 2.8711 and 2.362 and 6.4831 and 3.43 and 7.428 and 4.804 and 18.1098 and 9.611 | Activation tail currents (Voltage (mV) -20): 15.0143 | peak tail currents (I-V relationship) (Voltage (mV) -30): 132.826 and 89.7021 and 107.215 and 142.287 and 124.198 and 74.8335 and 106.966 and 44.1713 and 97.481 and 39.1658 | Steady-state currents (Voltage (mV) -30): 26.2905 and 2.297 and 2.248 and 2.097 and 1.35 and 2.687 and 2.39 and 4.071 and 1.181 and 8.895 and 2.9695 | Activation tail currents (Voltage (mV) -30): 7.534 and 3.411 and 6.987 and 3.037 and 3.42 and 5.381 and 4.729 and 3.695 and 5.67 and 20.6644 and 10.955 | peak tail currents (I-V relationship) (Voltage (mV) -40): 123.894 and 91.9717 and 106.938 and 138.26 and 129.161 and 68.3308 and 100.665 and 47.0658 and 110.15 and 41.9127 | Steady-state currents (Voltage (mV) -40): 22.4974 and 1.925 and 1.695 and 1.5162 and 1.5185 and 1.713 and 2.12 and 2.908 and -0.105 and 5.52 and 1.124 | Activation tail currents (Voltage (mV) -40): 4.388 and 2.505 and 3.124 and 2.236 and 2.355 and 2.6537 and 2.736 and 2.76 and 1.5226 and 9.99 and 3.792 | peak tail currents (I-V relationship) (Voltage (mV) -50): 102.384 and 84.1154 and 96.6044 and 116.609 and 127.372 and 55.6691 and 86.621 and 46.497 and 109.939 and 41.3172 | Steady-state currents (Voltage (mV) -50): 1.688 and 1.554 and 1.143 and 1.161 and 1.645 and 1.646 and 2.0814 and 1.85 and -0.735 and 4.1055 and 0.8628 | Activation tail currents (Voltage (mV) -50): 3.7007 and 2.582 and 2.251 and 2.025 and 2.032 and 1.953 and 2.466 and 2.6 and 0.4988 and 7.116 and 1.746 | Activation tail currents (Voltage (mV) -60): 4.229 and 3.296 and 2.251 and 1.856 and 2 and 1.917 and 2.331 and 2.577 and 0.3413 and 6.751 and 1.786 | Figure 4B value per cell vs Voltage (mV) (Voltage -10 mV, individual replicates): 14.8044 and 13.7126 and 12.9375 and 13.3319 and 13.3961 | Figure 4B value per cell vs Voltage (mV) (Voltage -20 mV, individual replicates): 17.0235 and 15.2047 and 14.605 and 15.0846 and 15.5938 | Figure 4D value per cell vs Voltage (mV) (Voltage -30 mV, individual replicates): 15.7269 and 18.6316 and 19.1074 and 18.8344 and 16.9058 and 17.0433 and 17.3545
